The structures appear in SMILES notation.

The series is described as follows: gradient 5% acetonitrile 3 min, to 50% in 2 min, to 85% in 15 min, held 3 min, 100 µL/min. The following applies: column: Zorbax Extend-C18 2.1 x 50 mm; eluents: water / acetonitrile, 0.1% formic acid. The gist of the method: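 Pure standards were analyzed in mixtures of ~100 molecules using HPLC coupled to a quadrupole time-of-flight mass spectrometer, in both positive and negative ionization mode. Separation used a Zorbax Extend-C18 column (2.1 × 50 mm, 1.8 μm) at 100 μL/min, with water and acetonitrile each containing 0.1% formic acid. Dead and dwell volumes were 40 μL and 900 μL, and data were collected over 3 months. Retention time was read from computationally picked adduct peaks, each inspected manually.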
As for `OCCc1nc2ccccc2n1C/C=C/c1ccccc1`, the RP-LC retention time was found to be 586 s.

Take `CCNC(=O)c1nccnc1NC(=O)c1ccccc1`: the RP-LC retention time turned out to be 743 s. Next, `COc1ccc(CNC(=O)c2ccc3c(c2)NC(=O)C2CCCCN32)c(OC)c1` (centres undefined): 795 s. Then `O=C(O)c1cc2cc(OCc3ccccc3)ccc2[nH]1`, with 903 s. Then `Clc1cccc(CSc2nnc(-c3ccc(Br)cc3)o2)c1`, with 1260 s. `CC1(C)SC2C(NC(=O)COc3ccccc3)C(=O)N2C1C(=O)O` (centres undefined) gave an RP-LC retention time of 821 s. Next, `Cc1cc2nn(CC(=O)Nc3cccc(Cl)c3)c(=O)n2c(Nc2ccccc2)n1`: 1060 s. Take `CN1C(=O)c2[nH]nc(-c3ccccc3)c2C1c1cccnc1` (centres undefined): the RP-LC retention time was 609 s. Take `Cc1cc(C(=O)Nc2ccc3nc(N4CCN(C)CC4)sc3c2)on1`: the RP-LC retention time was 544 s. Then `CCOCCCNC(=O)Cn1c(=O)c2cccn2c2ccc(F)cc21`, with 712 s. In turn, `Cc1ccc2c(c1)N(Cc1ccccc1F)N=C(C(=O)N1CCC(C)CC1)S2(=O)=O` gave an RP-LC retention time of 1090 s. Then `CC1CCN(C(=O)C2CCN(c3nc4ccc(-c5cccnc5)nc4s3)CC2)CC1`, with 630 s; and `O=c1[nH]c2ccccc2c2ccccc12`, with 806 s. Next, `Cn1cc(S(=O)(=O)N2CCC(C(=O)N3CCCC3)CC2)cc1C(=O)N1CCCCC1`: 681 s.

Consider `CCC(C)(C)NC(=O)C1CCN(S(=O)(=O)c2ccc3c(c2)NC(=O)CO3)CC1`, for which the RP-LC retention time was found to be 745 s.

`O=S(=O)(Nc1cccn2ncnc12)c1ccccc1Cl`: the RP-LC retention time was 742 s. `CC(C)(C)OC(=O)N1CCN(c2ncc(C(=O)NCc3ccccc3)c(N)n2)CC1` had an RP-LC retention time of 743 s.

`O=C1Nc2ccccc2SC1C(=O)N1CCC(C(=O)N2CCn3c2nc2ccccc23)CC1` (centres undefined) registered an RP-LC retention time of 688 s. For the molecule `Cc1noc([C@@H]2CN(C(=O)c3cc(C4CC4)[nH]n3)C[C@H]2C(N)=O)n1`, the RP-LC retention time is 596 s.

With `CN(C)CCNC(=O)C1CCN(S(=O)(=O)c2ccc3c(c2)sc(=O)n3C)CC1`, the RP-LC retention time worked out at 606 s.

`O=C(COc1ccc2c(-c3ccccc3)cc(=O)oc2c1)N1CCC2(O)CCCCC2C1` (centres undefined) displayed an RP-LC retention time of 845 s. In turn, `Cc1ccc(C(=O)NC2CCN(c3ccc(C)cc3)C2=O)cc1` (centres undefined) gave an RP-LC retention time of 825 s. With `Cc1cc2c(c(=O)n(-c3ccccc3)c(=O)n2CC(=O)Nc2cccc(Br)c2)n1C`, the RP-LC retention time was 836 s. In turn, `Cn1cccc1C(=O)N1CCN(c2cc(-c3ccccc3)[nH]n2)CC1` returned an RP-LC retention time of 747 s. The molecule `O=C(c1ccc2c(c1)OCO2)N1CC2CN(S(=O)(=O)c3ccc(F)cc3)CC(C1)O2` yielded an RP-LC retention time of 774 s.

As for `C=CCN(CC=C)c1nc(-c2ccccc2)nc2ccccc12`, the RP-LC retention time amounted to 770 s.

`O=C(Cc1ccsc1)N1C[C@H]2C[C@H](C1)[C@H]1CCCC(=O)N1C2` returned an RP-LC retention time of 631 s. Next, `O=S(=O)(c1ccc2c(c1)CCC2)N1CCCn2nc(-c3cccnc3)cc2C1`: 714 s. The molecule `O=C1NC2(CCN(C(=O)Nc3ccc4c(c3)OCO4)CC2)Nc2c(Cl)cccc21` came in with an RP-LC retention time of 682 s.

With `CCn1c(=O)c(=O)n(CC(=O)NCc2ccco2)c2cccnc21`, the RP-LC retention time was determined as 652 s. As to `Cc1ccc2c(c1)N(C(=O)Cn1ccc3ccn(Cc4ccccc4)c3c1=O)CCO2`, the RP-LC retention time came to 853 s. Next, `CCOC(=O)Cn1c(=O)c2c(nc3n2CC(C)CN3CCc2ccccc2)n(C)c1=O` (centres undefined): 985 s; `CCN1CCN(Cc2nc(Cn3ccn4nc(-c5ccc(C)c(C)c5)cc4c3=O)no2)CC1`: 674 s; `CCCCOc1ccc(-c2cc3c4nnc(CCC(=O)NCCc5cccs5)n4ccn3n2)cc1`: 943 s. Next, `CCc1ccc(NC(=O)N2CCN(c3cnn4c(CC)nnc4c3)CC2)cc1`: 698 s; `COc1ccc(-c2coc3cc(OCc4ccc([N+](=O)[O-])cc4)ccc3c2=O)cc1OC`: 991 s. In the case of `Cc1ccc(-c2nnc(N3CCC(C(=O)N4CCN(C5CCCCC5)CC4)CC3)o2)cc1`, the RP-LC retention time was determined as 644 s. The molecule `CC1=C(c2ccc(C(C)C)cc2)S(=O)(=O)N=C1N1CCC(C(=O)NCCN2CCCC2)CC1` returned an RP-LC retention time of 693 s. Next, `Cc1ccc(C)c(CNC(=O)c2ccc(-c3nc4cccnc4n3C3CCCCC3)cc2)c1`: 1120 s; `O=C(NCCn1nnc2cc(C(=O)N3CCCC3)ccc21)Nc1ccc(F)cc1`: 662 s; `CCCN1C(=O)COc2ccc(-c3noc(CNC(=O)Cc4ccc(Cl)cc4)n3)cc21`: 1050 s. In turn, `CC1Oc2ccccc2OC1C(=O)Nc1sc2c(c1C#N)CCCC2` (centres undefined) yielded an RP-LC retention time of 1120 s. Then `COc1cc(C(=O)Nc2nc(-c3ccc(C)cc3)cs2)c(Br)c(OC)c1OC`, with 1120 s.

As to `O=C(NC1CC1)C1CCCN(c2ncnc3c2nc2n3CCCCC2)C1` (centres undefined), the RP-LC retention time came to 622 s.

On to `Cc1cc2n(n1)CCCN2C(=O)CCC(=O)Nc1ccc(Br)cc1F`, for which the RP-LC retention time was 735 s. The molecule `O=C(NCCCN1CCCC1)C1c2ccccc2CC(=O)N1Cc1ccccc1` (centres undefined) registered an RP-LC retention time of 604 s. Then `CCc1nc2cccnc2n1CCN1CCN(C(=O)Nc2cc(C)ccc2C)CC1`, with 598 s. Next, `Cc1[nH]c(C(=O)N2CCC(CC(=O)N3CCCCCC3)CC2)c(C)c1C(=O)OC(C)C`: 879 s; `O=C(NCc1ccccc1Cl)C1CCN(C(=O)c2ncn3c2COC(c2ccccc2)C3)CC1` (centres undefined): 786 s. Next, `Cc1nc(C)c(C(=O)Nc2nc(-c3ccccc3)cs2)s1`: 886 s.

As to `Cc1nnc(NC(=O)COc2ccc3ccccc3c2)s1`, the RP-LC retention time stood at 742 s. As for `Cc1noc(C2(NC(=O)c3ccccn3)CCCCC2)n1`, the RP-LC retention time was 766 s. Next, `CN(C)S(=O)(=O)c1ccc2c(c1)cc(C(=O)NCCc1c[nH]c3ccccc13)n2C`: 895 s; `Cc1ccc(Nc2c(-c3ccccc3O)nc3ncccn23)cc1C`: 951 s. `CC(=O)Nc1ccc(-n2cnc(C(=O)N3CCN(c4ccc(Cl)cc4)CC3)c2)nc1` showed an RP-LC retention time of 751 s. With `O=C(c1ccc(N2CCCC2)c(S(=O)(=O)N2CCCC2)c1)N1CCN(c2ccccn2)CC1`, the RP-LC retention time came out at 664 s. Next, `COc1ccc(C2Cn3nnc(-c4nc(-c5ccc(OCc6ccccc6)cc5)no4)c3CO2)cc1` (centres undefined): 1340 s; `CCc1nn2c(CNS(=O)(=O)c3ccc(C)cc3C)c(-c3ccccc3)nc2s1`: 1020 s. For the molecule `Cn1ncc2c3ccccc3n(CC(=O)N3CCN(C4CCCCC4)CC3)c2c1=O`, the RP-LC retention time is 622 s.

With `CCn1nc(C)c2ccn(CC(=O)NCc3cc(F)cc(F)c3)c(=O)c21`, the RP-LC retention time stood at 757 s. Next, `CCN(CC)CCNc1ccc2nc(C)n3c4ccc(OC)cc4c(=O)c1c23`: 610 s; `COc1ccc(C)cc1Nc1nc(C(=O)Nc2cccnc2)cs1`: 637 s; `Cc1nn(CCC(=O)NC2CCCCCC2)c(=O)c2nn(-c3ccccc3)c(C)c12`: 830 s.

As to `COCCc1noc(-c2cnc3nc(C)ccc3c2Nc2cccc(Cl)c2)n1`, the RP-LC retention time came to 763 s. Next, `Cc1cc2c(cc1S(=O)(=O)N1CCCC1C(=O)NCc1ccc3c(c1)OCO3)OC(C)C(=O)N2` (centres undefined): 755 s; `CC1=NOC(C)(CNS(=O)(=O)c2ccc(F)cc2)C1` (centres undefined): 728 s; `Clc1ccc(-c2nc(N3CCCCCC3)c3ccccc3n2)cc1`: 847 s.

`CC1=C(c2ccc(F)cc2)S(=O)(=O)N=C1N1CCCN(C(=O)c2sccc2C)CC1` yielded an RP-LC retention time of 830 s. Then `Cc1nc2cc(-c3noc(C(C)NC(=O)c4ccccc4)n3)ccc2o1` (centres undefined), with 811 s.

On to `CCN1C=C(C(=O)OCc2ccccc2F)C(C)=NS1(=O)=O`, for which the RP-LC retention time is 895 s.

In the case of `COc1ccc2c(c1)CC(NC(=O)N1CCN(Cc3ccc4c(c3)OCO4)CC1)CO2` (centres undefined), the RP-LC retention time was 652 s. Next, `CCOc1ccccc1NC(=O)Cn1cccc(S(=O)(=O)N2CCC(C)CC2)c1=O`: 857 s. Then `O=C1CCCC(=O)N1CCS(=O)(=O)Nc1ccc(Cl)c(N2CCCS2(=O)=O)c1`, with 657 s; and `CC1C(=O)NCCN1C(=O)CCSc1ccc(Cl)cc1` (centres undefined), with 674 s. Molecule `O=C(c1ccccc1)N1CCN(c2cc(-c3cccs3)[nH]n2)CC1` yielded an RP-LC retention time of 754 s. The molecule `CCOC(=O)c1noc2ncnc(N(Cc3ccccc3OC)C3CCN(C)CC3)c12` showed an RP-LC retention time of 667 s. With `O=c1c2ccccc2c(-c2nc(-c3ccncc3)no2)cn1-c1ccc(Cl)cc1`, the RP-LC retention time was determined as 1140 s. Then `CCN(Cc1ccccc1)C(=O)c1ncn2c1C(=O)N(CC)C(C)(C(=O)NC1CCCC1)C2` (centres undefined), with 734 s; and `CSc1ncccc1-c1nc(-c2ccc3oc(C)nc3c2)no1`, with 1100 s.

Values taken from the METLIN SMRT retention time set (Domingo-Almenara et al. 2019).
